Tests used:
[1] = cited from earlier work
[2] = system: KYSE-150 xenograft; assay: KYSE-150 xenograft efficacy; format: in vivo, mice; conditions: 120 mg/kg QD p.o.
Procedure: (§1) Tumor cells were injected subcutaneously into the flanks of 6- to 9-week old animals. Efficacy studies in xenograft models were performed at Bayer or EPO GmbH (Berlin-Buch, Germany) using NMRI nu/nu, SCID, BALB/c Nude female mice or SCID male mice (VCaP tumors). All animal studies were conducted in accordance with the animal welfare laws and were approved by the State Office for Health and Social Affairs Berlin (LAGeSo). Experiments were run under the animal license B3600a0007. Compound treatment started at a predefined tumor size or burden or at a predefined day after cell inoculation. BAY-155 was administered orally (p.o.) at various doses and regorafenib, tamoxifen and enzalutamide (resuspended in PEG400/H2O 6/4 or PEG400/EtOH 9/1) were used as control treatment for RKO, MCF7 and VCaP xenografts, respectively. Subcutaneous tumor volumes were determined by caliper measurement.

[3] = system: safety pharmacology relevant proteins (GPCRs, ion channels and transporters); assay: Selectivity panel of safety pharmacology assays; conditions: 10 µM
[4] = target: CYP 2C8 (Homo sapiens, UniProt P10632); conditions: cited from earlier work
Chain of CYP 2C8 (P10632 whole entry): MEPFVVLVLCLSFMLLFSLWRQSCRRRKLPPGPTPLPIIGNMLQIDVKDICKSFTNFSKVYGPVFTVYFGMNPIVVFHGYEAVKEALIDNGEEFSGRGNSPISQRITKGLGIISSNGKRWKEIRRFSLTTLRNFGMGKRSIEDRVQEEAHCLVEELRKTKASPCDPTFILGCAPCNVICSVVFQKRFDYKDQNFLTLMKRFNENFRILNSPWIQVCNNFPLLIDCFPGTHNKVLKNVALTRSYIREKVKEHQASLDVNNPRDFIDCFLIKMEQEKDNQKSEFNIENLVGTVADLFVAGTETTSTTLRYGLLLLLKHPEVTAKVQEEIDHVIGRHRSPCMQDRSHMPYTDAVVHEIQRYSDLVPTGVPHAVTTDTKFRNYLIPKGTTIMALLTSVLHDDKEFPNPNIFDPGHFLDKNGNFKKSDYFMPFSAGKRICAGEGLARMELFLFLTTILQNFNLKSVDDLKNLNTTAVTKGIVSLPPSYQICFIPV

[5] = system: CYP enzymes; conditions: cited from earlier work
[6] = target: CYP 1A2 (Homo sapiens, UniProt P05177); conditions: cited from earlier work
Chain of CYP 1A2 (P05177 whole entry): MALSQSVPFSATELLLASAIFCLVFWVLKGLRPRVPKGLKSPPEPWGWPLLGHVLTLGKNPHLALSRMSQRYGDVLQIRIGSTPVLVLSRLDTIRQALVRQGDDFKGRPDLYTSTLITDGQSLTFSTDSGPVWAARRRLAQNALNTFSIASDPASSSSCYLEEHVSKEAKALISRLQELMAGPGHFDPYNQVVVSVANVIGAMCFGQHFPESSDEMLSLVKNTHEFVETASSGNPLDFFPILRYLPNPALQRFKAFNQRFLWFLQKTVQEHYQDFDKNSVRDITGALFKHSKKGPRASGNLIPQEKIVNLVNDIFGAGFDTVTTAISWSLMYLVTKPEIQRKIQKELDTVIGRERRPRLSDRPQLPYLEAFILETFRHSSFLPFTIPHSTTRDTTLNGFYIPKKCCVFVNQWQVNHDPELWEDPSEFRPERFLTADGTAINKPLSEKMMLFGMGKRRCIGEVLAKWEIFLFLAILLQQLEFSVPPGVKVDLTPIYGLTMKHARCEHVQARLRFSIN

[7] = target: T1, menin-MLL interaction (Homo sapiens, UniProt O00255); assay: TR-FRET menin-MLL binding assay; conditions: BAY-155 vs MI-503
T1 construct: recombinant full length, His-tagged menin
T1 sequence (O00255 1-610): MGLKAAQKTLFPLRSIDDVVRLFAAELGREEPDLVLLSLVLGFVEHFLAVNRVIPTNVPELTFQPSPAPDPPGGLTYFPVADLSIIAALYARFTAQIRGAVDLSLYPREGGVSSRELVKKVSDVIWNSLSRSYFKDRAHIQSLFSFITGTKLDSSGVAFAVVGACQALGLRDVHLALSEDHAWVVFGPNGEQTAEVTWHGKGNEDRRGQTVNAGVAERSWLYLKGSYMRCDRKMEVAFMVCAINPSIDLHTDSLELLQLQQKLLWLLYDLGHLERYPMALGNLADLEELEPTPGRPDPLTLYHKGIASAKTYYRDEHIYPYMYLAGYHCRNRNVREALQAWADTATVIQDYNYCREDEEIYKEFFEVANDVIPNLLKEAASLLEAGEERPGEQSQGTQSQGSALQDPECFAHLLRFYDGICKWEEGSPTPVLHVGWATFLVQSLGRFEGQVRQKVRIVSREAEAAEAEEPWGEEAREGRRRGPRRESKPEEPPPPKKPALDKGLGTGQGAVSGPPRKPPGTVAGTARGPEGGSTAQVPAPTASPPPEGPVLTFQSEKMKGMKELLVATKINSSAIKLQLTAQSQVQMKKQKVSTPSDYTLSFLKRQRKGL

[8] = target: T2, menin (Homo sapiens, UniProt O00255); assay: Isothermal Titration Calorimetry (ITC) on purified menin; format: binding
T2 construct: purified menin (1–615 with GST-tag cleaved as described above); GST (TEV cleavable) (N, cleaved yes); made in house; host or cells: E. coli BL21 (DE3)
T2 sequence (O00255 1-615 isoform O00255-1): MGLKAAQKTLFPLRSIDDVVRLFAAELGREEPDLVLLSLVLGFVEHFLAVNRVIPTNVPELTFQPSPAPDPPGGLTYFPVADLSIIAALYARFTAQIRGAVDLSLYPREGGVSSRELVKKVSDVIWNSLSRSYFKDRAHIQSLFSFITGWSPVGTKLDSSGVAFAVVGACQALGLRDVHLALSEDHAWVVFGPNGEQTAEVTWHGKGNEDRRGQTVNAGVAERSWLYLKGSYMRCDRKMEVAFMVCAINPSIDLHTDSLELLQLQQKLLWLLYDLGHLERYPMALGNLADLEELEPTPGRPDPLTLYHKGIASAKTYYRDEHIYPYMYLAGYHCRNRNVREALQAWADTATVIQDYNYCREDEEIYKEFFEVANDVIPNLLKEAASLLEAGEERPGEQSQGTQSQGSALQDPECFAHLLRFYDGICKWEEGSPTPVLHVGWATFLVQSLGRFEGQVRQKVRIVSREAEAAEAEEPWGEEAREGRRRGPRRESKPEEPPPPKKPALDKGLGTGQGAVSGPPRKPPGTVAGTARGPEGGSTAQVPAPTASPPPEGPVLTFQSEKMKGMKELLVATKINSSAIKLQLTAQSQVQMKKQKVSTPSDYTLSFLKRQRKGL
Procedure: Cloning of expression vectors for recombinant menin was performed as follows. […] Proteins were expressed in E. coli BL21 (DE3) following 0.1 mM IPTG induction at 17 °C overnight. For purification, cell pellets were resuspended in buffer A (50 mM Tris pH 7.5, 300 mM NaCl, 2 mM DTT). Cells were lysed using a high pressure Microfluidics apparatus and the cell debris pelleted by centrifugation. The supernatant was applied to a GST column (GE Healthcare, Chicago, IL, USA), washed with two column volumes of washing buffer A and eluted with Buffer B (Buffer A plus 15 mM reduced glutathione). If necessary, the purification tag was cleaved off with the addition of His-TEV protease (1:20 mass ratio) during overnight incubation in buffer A. His-TEV was removed by IMAC column rebinding and final protein purification of either GST-cleaved or uncleaved menin-1 was performed by size exclusion chromatography using a HiLoad 16/60 Superdex 200 (GE Healthcare) column in buffer C (Buffer A but 50 mM NACl).
The compound was dissolved in 100% DMSO to a concentration of 10 mM and subsequently diluted to a final concentration of 5 µM in ITC Buffer. Isothermal Titration Calorimetry (ITC) was performed at 25 °C in a Microcal PEAQ-ITC (Malvern Panalytical). […] Reference Power was set to 6 μcal/s. Data were collected on high feedback mode. Analysis was performed with a single binding site model in the Microcal PEAQ-ITC Analysis Software (Malvern Panalytical).

[9] = system: MOLM-13 xenograft; assay: MOLM-13 xenograft efficacy; format: in vivo, mice; conditions: p.o.
Procedure: as §1

In the case of Cc1c(CN2CCC3(CC2)CN(c2ncnc4sc(CC(F)(F)F)cc24)C3)ccc2c1cc(C#N)n2CC(N)=O [BAY-155], the “in vivo CL blood Rat” value [1] is given as 18.3 mL/min/kg, the “in vivo F Rat” value [1] is given as 15.3% and the “tumor volume T/C” value [2] is given as 0.67. For the same compound, the tumor weight [2] was “significant decrease in tumor weight”, the “number of tested proteins inhibited by ≥ 50%” value [3] was 7 and the “cases in which an IC50 value could be reached” value ([3]; of 77 targets) was 7/77. For the same compound, the IC50 [4] was over 20 µM, the “inhibition of CYP enzymes (in words)” value [5] was “no inhibition” and the IC50 [6] was over 20 µM. The “fold better inhibitory IC50 compared to MI-503” value [7] was 10 fold, the Kd [8] was 0.075 µM and the “stoichiometry factor N” value ([8]; ITC) was 1.06. For the same compound, the tumor volume [9] was “dose-dependent inhibition of tumor volume” and the tumor weight [9] was “significant reduction of tumor weight”.
